Measurements as given in ChEMBL document CHEMBL1135281, “Solid-phase synthesis and pharmacological evaluation of analogues of PhTX-12-A potent and selective nicotinic acetylcholine receptor antagonist” (Bioorg Med Chem Lett, 2002).

Legend:
[1] = biological target: T1, Acetylcholine receptor subunit delta (Homo sapiens, UniProt Q07001); assay: Compound was evaluated for inhibitory activity against human embryonic muscle type Nicotinic acetylcholine receptor specifically delta-subunit expressed in TE-671 cell (at holding potential -50 mV); format: cell-based
T1 sequence (Q07001 whole entry): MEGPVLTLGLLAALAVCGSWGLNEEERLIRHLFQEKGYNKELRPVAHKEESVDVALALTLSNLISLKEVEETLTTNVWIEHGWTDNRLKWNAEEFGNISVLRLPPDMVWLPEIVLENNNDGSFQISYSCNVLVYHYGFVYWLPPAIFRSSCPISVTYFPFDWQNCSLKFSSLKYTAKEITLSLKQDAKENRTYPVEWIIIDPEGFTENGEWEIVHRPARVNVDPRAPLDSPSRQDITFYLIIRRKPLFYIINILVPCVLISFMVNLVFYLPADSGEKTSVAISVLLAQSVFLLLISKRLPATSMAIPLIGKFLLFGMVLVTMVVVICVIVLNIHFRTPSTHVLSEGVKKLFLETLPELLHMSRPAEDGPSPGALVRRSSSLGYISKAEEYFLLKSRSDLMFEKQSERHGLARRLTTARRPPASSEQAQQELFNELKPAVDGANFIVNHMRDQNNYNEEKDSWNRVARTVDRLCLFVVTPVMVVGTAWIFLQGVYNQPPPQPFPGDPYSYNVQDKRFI

[2] = biological target: T1, Acetylcholine receptor subunit delta; assay: Compound was evaluated for inhibitory activity against human embryonic muscle type Nicotinic acetylcholine receptor specifically delta-subunit expressed in TE-671 cell (at holding potential -100 mV); format: cell-based

CCCC(=O)N[C@@H](Cc1ccc(O)cc1)C(=O)NCCCCCCCCN
IC50 [1]: 9.76 µM | IC50 [2]: 5.03 µM

CCCC(=O)N[C@@H](Cc1ccc(O)cc1)C(=O)NCCCCCCCCCCN
IC50 [1]: 8.66 µM | IC50 [2]: ~10 µM

CCCC(=O)N[C@@H](Cc1ccc(O)cc1)C(=O)NCCCCCCCCCCCN
IC50 [1]: 0.58 µM | IC50 [2]: 0.46 µM

CCCC(=O)N[C@@H](Cc1ccc(O)cc1)C(=O)NCCCCCCCCCCCCN
IC50 [1]: 1.53 µM | IC50 [2]: 0.93 µM

CCCC(=O)N[C@@H](Cc1ccc(O)cc1)C(=O)NCCCCCCCN
IC50 [1]: 10.5 µM | IC50 [2]: 5.44 µM

CCCC(=O)N[C@@H](Cc1ccc(O)cc1)C(=O)NCCCCCCCCCN
IC50 [1]: 13.3 µM | IC50 [2]: 15.1 µM

CCCC(=O)N[C@@H](Cc1ccc(O)cc1)C(=O)NCCCNCCCCNCCCN [PHILANTHOTOXIN 343]
IC50 [2]: 75 µM
